In patent US20250346585A1 (Alexion Pharmaceuticals, Inc., priority 2022, published 2025):
Read-outs that look alike come from different tables or passages of the source.

Biological target: Human complement C1s enzyme (Homo sapiens (Human), UniProt P09871)
Assay: Human C1s enzyme assay
Format: biochemical
Settings: read-out: IC50 (Stars)
Method in brief: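 Purified serum-derived human C1s (1.16 nM final) preincubated 5 min at room temperature with compound in 50 mM Tris, 1 M NaCl, pH 7.5. Z-L-Lys-SBzl thioester substrate and DTNB added (100 μM each, final); A405 read every 30 s for 30 min. IC50 from nonlinear regression of reaction rates against compound concentration.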

[1] = Human complement C1s enzyme 1.16 nM, substrate Z-L-Lys-SBzl, assay of Example 3
[2] = Human complement C1s enzyme 1.16 nM, substrate Z-L-Lys-SBzl 100 μM, assay of Example 3
[3] = Human C1s enzyme assay of Example 3

Chain of Human complement C1s enzyme (P09871 438-688 limits assumed): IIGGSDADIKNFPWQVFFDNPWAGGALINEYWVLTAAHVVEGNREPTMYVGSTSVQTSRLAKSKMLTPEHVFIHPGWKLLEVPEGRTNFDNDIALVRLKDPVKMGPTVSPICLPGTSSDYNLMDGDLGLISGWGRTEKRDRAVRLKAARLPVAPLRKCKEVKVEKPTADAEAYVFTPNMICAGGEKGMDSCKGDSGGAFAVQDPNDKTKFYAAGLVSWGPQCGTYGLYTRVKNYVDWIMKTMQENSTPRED
Chain of Human complement C1s enzyme (P09871 16-437 partner limits assumed): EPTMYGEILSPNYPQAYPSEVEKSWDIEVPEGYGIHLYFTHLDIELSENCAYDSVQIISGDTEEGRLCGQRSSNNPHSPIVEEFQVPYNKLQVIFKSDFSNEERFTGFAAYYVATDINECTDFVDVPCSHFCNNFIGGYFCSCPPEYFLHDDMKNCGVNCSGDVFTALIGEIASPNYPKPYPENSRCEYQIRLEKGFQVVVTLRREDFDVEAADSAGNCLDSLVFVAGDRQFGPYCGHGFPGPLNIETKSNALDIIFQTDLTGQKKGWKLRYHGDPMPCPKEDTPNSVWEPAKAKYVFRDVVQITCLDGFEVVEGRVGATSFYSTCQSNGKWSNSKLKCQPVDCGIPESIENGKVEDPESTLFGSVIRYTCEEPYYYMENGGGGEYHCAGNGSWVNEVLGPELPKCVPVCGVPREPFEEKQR

| IC50 [2] | IC50 [3] | Structure (SMILES) | other results |
| --- | --- | --- | --- |
| < 100 nM |  | C[C@@H](NC(=O)[C@@H]1C[C@@H](OC(F)F)CN1C(=O)CNC(=O)c1ccc2c(c1)Oc1ccccc1S2)c1cc(C(=N)N)cs1 [Compound 328, (2S,4R)—N—((R)-1-(4-carbamimidoylthiophen-2-yl)ethyl)-4-(difluoromethoxy)-1-((phenoxathiine-3-carbonyl)glycyl)pyrrolidine-2-carboxamide] |  |
| < 100 nM |  | C[C@@H](NC(=O)[C@@H]1C[C@@H](OC(F)F)CN1C(=O)CNC(=O)c1ccc2[nH]c3ccccc3c2c1)c1cc(C(=N)N)cs1 [Compound 326, N-(2-((2S,4R)-2-(((R)-1-(4-carbamimidoylthiophen-2-yl)ethyl)carbamoyl)-4-(difluoromethoxy)pyrrolidin-1-yl)-2-oxoethyl)-9H-carbazole-3-carboxamide] |  |
| < 100 nM |  | N=C(N)c1csc(CCNC(=O)[C@@H]2CC3(CN2C(=O)CNC(=O)c2ccc4c(c2)-c2ccccc2C4(F)F)OCCO3)c1 [Compound 251, (S)—N-(2-(4-carbamimidoylthiophen-2-yl)ethyl)-7-((9,9-difluoro-9H-fluorene-3-carbonyl)glycyl)-1,4-dioxa-7-azaspiro[4.4]nonane-8-carboxamide] |  |
|  | < 100 nM | C[C@@H](NC(=O)[C@@H]1C[C@H](C2CCCCC2)CN1C(=O)CNC(=O)c1ccc(Oc2ccc(F)cc2)cc1)c1cc(C(=N)N)cs1 [Compound 93, (2S,4R)—N—((R)-1-(4-carbamimidoylthiophen-2-yl)ethyl)-4-cyclohexyl-1-((4-(4-fluorophenoxy)benzoyl)glycyl)pyrrolidine-2-carboxamide] |  |
|  | < 100 nM | C[C@@H](NC(=O)[C@@H]1C[C@@H](OC(F)F)CN1C(=O)CNC(=O)c1ccc(C(F)(F)c2ccccc2)cc1)c1cc(C(=N)N)cs1 [Compound 131, (2S,4R)—N—((R)-1-(4-carbamimidoylthiophen-2-yl)ethyl)-1-((4-(difluoro(phenyl)methyl)benzoyl)glycyl)-4-(difluoromethoxy)pyrrolidine-2-carboxamide] |  |

Further lines, the compound ahead of its results:

| Structure (SMILES) | IC50 [2] | IC50 [3] | other results |
| --- | --- | --- | --- |
| CS(=O)(=O)[C@@H]1C[C@@H](C(=O)N[C@H](CO)c2cc(C(=N)N)cs2)N(C(=O)CNC(=O)c2ccc3c(c2)C(F)(F)c2ccccc2-3)C1 [Compound 406, (2S,4R)—N—((R)-1-(4-carbamimidoylthiophen-2-yl)-2-hydroxyethyl)-1-((9,9-difluoro-9H-fluorene-2-carbonyl)glycyl)-4-(methylsulfonyl)pyrrolidine-2-carboxamide] |  |  | IC50 [1]: < 100 nM |
| CS(=O)(=O)[C@@H]1C[C@@H](C(=O)N[C@H](CO)c2cc(C(=N)N)cs2)N(C(=O)CNC(=O)c2cccc(-c3ccc(F)cc3)c2)C1 [Compound 402, (2S,4R)—N—((R)-1-(4-carbamimidoylthiophen-2-yl)-2-hydroxyethyl)-1-((4′-fluoro-[1,1′-biphenyl]-3-carbonyl)glycyl)-4-(methylsulfonyl)pyrrolidine-2-carboxamide] |  |  | IC50 [1]: < 100 nM |
| N=C(N)c1csc(CNC(=O)[C@@H]2CC3(CN2C(=O)CN2CCc4cc(-c5ccccc5)ccc4C2=O)OCCO3)c1 [Compound 256, (S)—N-((4-carbamimidoylthiophen-2-yl)methyl)-7-(2-(1-oxo-6-phenyl-3,4-dihydroisoquinolin-2(1H)-yl)acetyl)-1,4-dioxa-7-azaspiro[4.4]nonane-8-carboxamide] | < 100 nM |  |  |
| COC(=O)/N=C(/N)c1csc([C@@H](C)NC(=O)[C@@H]2C[C@@H](OC(F)F)CN2C(=O)CNC(=O)c2ccc3c(c2)-c2ccccc2C3(F)F)c1 [Compound 247, methyl ((E)-amino(5-((R)-1-((2S,4R)-1-((9,9-difluoro-9H-fluorene-3-carbonyl)glycyl)-4-(difluoromethoxy)pyrrolidine-2-carboxamido)ethyl)thiophen-3-yl)methylene)carbamate] | < 100 nM |  |  |
| C[C@@H](NC(=O)[C@@H]1C[C@H](c2ccncc2)CN1C(=O)CNC(=O)c1ccc2c(c1)-c1ccccc1C2(F)F)c1cc(C(=N)N)cs1 [Compound 370, (2S,4R)—N—((R)-1-(4-carbamimidoylthiophen-2-yl)ethyl)-1-((9,9-difluoro-9H-fluorene-3-carbonyl)glycyl)-4-(pyridin-4-yl)pyrrolidine-2-carboxamide] | < 100 nM |  |  |
| C[C@@H](NC(=O)[C@@H]1C[C@](F)(CF)CN1C(=O)CNC(=O)c1ccc2c(c1)-c1ccccc1C2)c1cc(C(=N)N)cs1 [Compound 12, (2S,4R)—N-[(1R)-1-(4-carbamimidoylthiophen-2-yl)ethyl]-1-[2-(9H-fluoren-3-ylformamido)acetyl]-4-fluoro-4-(fluoromethyl)pyrrolidine-2-carboxamide] |  | < 100 nM |  |
| C[C@@H](NC(=O)[C@@H]1CC2(CN1C(=O)CNC(=O)c1ccc3c(c1)-c1ccccc1C3(F)F)OCCO2)c1cc(C(=N)N)cs1 [Compound 21, (S)—N—((R)-1-(4-carbamimidoylthiophen-2-yl)ethyl)-7-((9,9-difluoro-9H-fluorene-3-carbonyl)glycyl)-1,4-dioxa-7-azaspiro[4.4]nonane-8-carboxamide] |  | < 100 nM |  |
| Cc1cc(C(=O)NCC(=O)N2C[C@@](F)(CF)C[C@H]2C(=O)N[C@H](C)c2cc(C(=N)N)cs2)ccc1Oc1ccccc1 [Compound 32, (2S,4R)—N—((R)-1-(4-carbamimidoylthiophen-2-yl)ethyl)-4-fluoro-4-(fluoromethyl)-1-((3-methyl-4-phenoxybenzoyl)glycyl)pyrrolidine-2-carboxamide] |  | < 100 nM |  |
| Cc1cccc2c1C(F)(F)c1ccc(C(=O)NCC(=O)N3CC4(C[C@H]3C(=O)N[C@H](C)c3cc(C(=N)N)cs3)OCCO4)cc1-2 [Compound 182, (S)—N—((R)-1-(4-carbamimidoylthiophen-2-yl)ethyl)-7-((9,9-difluoro-8-methyl-9H-fluorene-3-carbonyl)glycyl)-1,4-dioxa-7-azaspiro[4.4]nonane-8-carboxamide] |  | < 100 nM |  |
| N=C(N)c1csc(CNC(=O)[C@@H]2CC3(CN2C(=O)CN2CCc4cc(-c5ccc(F)cc5F)ccc4C2=O)OCCO3)c1 [Compound 245, (S)—N-((4-carbamimidoylthiophen-2-yl)methyl)-7-(2-(6-(2,4-difluorophenyl)-1-oxo-3,4-dihydroisoquinolin-2(1H)-yl)acetyl)-1,4-dioxa-7-azaspiro[4.4]nonane-8-carboxamide] | < 100 nM |  |  |
| CC1(C)c2ccccc2-c2cc(C(=O)NCC(=O)N3C[C@@](F)(CF)C[C@H]3C(=O)N[C@H](CO)c3cc(C(=N)N)cs3)ccc21 [Compound 401, (2S,4R)—N—((R)-1-(4-carbamimidoylthiophen-2-yl)-2-hydroxyethyl)-1-((9,9-dimethyl-9H-fluorene-3-carbonyl)glycyl)-4-fluoro-4-(fluoromethyl)pyrrolidine-2-carboxamide] |  |  | IC50 [1]: < 100 nM |
| Cc1cc(C(=O)NCC(=O)N2CC3(C[C@H]2C(=O)N[C@H](C)c2cc(C(=N)N)cs2)OCCO3)cc2c1C(F)(F)c1ccccc1-2 [Compound 179, (S)—N—((R)-1-(4-carbamimidoylthiophen-2-yl)ethyl)-7-((9,9-difluoro-1-methyl-9H-fluorene-3-carbonyl)glycyl)-1,4-dioxa-7-azaspiro[4.4]nonane-8-carboxamide] |  | < 100 nM |  |
| COC[C@@]1(F)C[C@@H](C(=O)N[C@H](C)c2cc(C(=N)N)cs2)N(C(=O)CNC(=O)c2ccc3sc4ccccc4c3c2)C1 [Compound 394, (2S,4R)—N—((R)-1-(4-carbamimidoylthiophen-2-yl)ethyl)-1-((dibenzo[b,d]thiophene-2-carbonyl)glycyl)-4-fluoro-4-(methoxymethyl)pyrrolidine-2-carboxamide] | < 100 nM |  |  |
